Earlier results on nine compounds are cited in PubChem BioAssay AID1259409 (Chemical Carcinogenesis Research Information System (CCRIS), 2018).

The data set has as its system rodent chemically induced tumor inhibition, incidence and multiplicity. Put plainly: CCRIS tumor inhibitor studies.

On to `Cc1ccc(O)c(C(C)(C)C)c1`, for which the “tumour outcome (control, treated, inhibition, significance)” value is reported as 7/19 (37%), 5/19 (26%), 29%, not calculated (Carcinogen: 7,12-DIMETHYLBENZ[A]ANTHRACENE, 57-97-6, Dose [Inhibitor]: 1.0% IN POWDERED DIET BEGINNING 1 WK POST CARCINOGEN DOSE FOR 51 WK (STUDY DURATION: 52 WK), Route [Inhibitor]: ORAL, Species: RAT, Strain/Sex: SPRAGUE-DAWLEY/FEMALE, Target Tissue: Type of Lesion: EAR DUCT: BENIGN TUMOR, Dose [Carcinogen]: 2.5 MG/100 G BW IN 0.5 ML SESAME OIL ONCE, Promoter: NONE USED); 6/19 (32%), 6/19 (32%), 0%, not significant (Carcinogen: 7,12-DIMETHYLBENZ[A]ANTHRACENE, 57-97-6, Dose [Inhibitor]: 1.0% IN POWDERED DIET BEGINNING 1 WK POST CARCINOGEN DOSE FOR 51 WK (STUDY DURATION: 52 WK), Route [Inhibitor]: ORAL, Species: RAT, Strain/Sex: SPRAGUE-DAWLEY/FEMALE, Target Tissue: Type of Lesion: MAMMARY GLAND: CARCINOMA, Dose [Carcinogen]: 2.5 MG/100 G BW IN 0.5 ML SESAME OIL ONCE, Promoter: NONE USED); 15/19 (79%), 2/19 (11%), 87%, p<0.001 (Carcinogen: 7,12-DIMETHYLBENZ[A]ANTHRACENE, 57-97-6, Dose [Inhibitor]: 1.0% IN POWDERED DIET BEGINNING 1 WK POST CARCINOGEN DOSE FOR 51 WK (STUDY DURATION: 52 WK), Route [Inhibitor]: ORAL, Species: RAT, Strain/Sex: SPRAGUE-DAWLEY/FEMALE, Target Tissue: Type of Lesion: MAMMARY GLAND: FIBROADENOMA, Dose [Carcinogen]: 2.5 MG/100 G BW IN 0.5 ML SESAME OIL ONCE, Promoter: NONE USED).
As for `N#C[SeH]`, the “tumour outcome (control, treated, inhibition, significance)” value reads like this: (Carcinogen: 7,12-DIMETHYLBENZ[A]ANTHRACENE, 57-97-6, Dose [Inhibitor]: 0, 2 PPM (AS SELENIUM) IN DIET BEGINNING 2 WK PRIOR TO CARCINOGEN DOSE AND CONTINUING FOR DURATION OF STUDY (STUDY DURAT, Route [Inhibitor]: ORAL, Species: RAT, Strain/Sex: SPRAGUE-DAWLEY/FEMALE, Target Tissue: Type of Lesion: MAMMARY GLAND: ADENOCARCINOMA, Dose [Carcinogen]: 10 MG ONCE AT 55 D OF AGE, Promoter: NONE USED) 88%, 68%, 23%, not significant; (Carcinogen: 7,12-DIMETHYLBENZ[A]ANTHRACENE, 57-97-6, Dose [Inhibitor]: 0, 3 PPM (AS SELENIUM) IN DIET BEGINNING 2 WK PRIOR TO CARCINOGEN DOSE AND CONTINUING FOR DURATION OF STUDY (STUDY DURAT, Route [Inhibitor]: ORAL, Species: RAT, Strain/Sex: SPRAGUE-DAWLEY/FEMALE, Target Tissue: Type of Lesion: MAMMARY GLAND: ADENOCARCINOMA, Dose [Carcinogen]: 10 MG ONCE AT 55 D OF AGE, Promoter: NONE USED) 88%, 44%, 50%, p<0.05.
In the case of `S=C=Nc1cc2ccccc2c2ccccc12`, where the note is “Carcinogen: BENZO[A]PYRENE, 50-32-8, Dose [Inhibitor]: 0, 5 UMOL IN ACETONE 4 HR PRIOR TO CARCINOGEN DOSE (STUDY DURATION: 20 WK), Route [Inhibitor]: DERMAL, Species: MOUSE, Strain/Sex: STRAIN-A/FEMALE, Target Tissue: Type of Lesion: SKIN: TUMOR, Dose [Carcinogen]: 0.1 UMOL IN ACETONE ONCE, Promoter: 12-O-TETRADECANOYLPHORBOL-13-ACETATE, 16561-29-8”, the outcome is recorded as 85%, 95%, -12%, not significant at 15 wk; 95%, 95%, 0%, not significant at 20 wk.
`C[Se]C[C@H](N)C(=O)O`: the “tumour outcome (control, treated, inhibition, significance)” value is listed as 25/30 (83%), 15/30 (50%), 40%, p<0.05 (Carcinogen: 7,12-DIMETHYLBENZ[A]ANTHRACENE, 57-97-6, Dose [Inhibitor]: 0, 0.000025 MOL/KG DIET BEGINNING 1 WK POST CARCINOGEN AND CONTINUED FOR STUDY DURATION (STUDY DURATION: 25 WK), Route [Inhibitor]: ORAL, Species: RAT, Strain/Sex: CD-1/FEMALE, Target Tissue: Type of Lesion: MAMMARY GLAND: ADENOCARCINOMA, Dose [Carcinogen]: 10 MG ONCE, Promoter: NONE USED); 25/30 (83%), 17/30 (57%), 31%, p<0.05 (Carcinogen: 7,12-DIMETHYLBENZ[A]ANTHRACENE, 57-97-6, Dose [Inhibitor]: 0, 0.000025 MOL/KG DIET BEGINNING 2 WK PRIOR TO CARCINOGEN AND CONTINUED 1 WK POST CARCINOGEN (STUDY DURATION: 25 WK), Route [Inhibitor]: ORAL, Species: RAT, Strain/Sex: CD-1/FEMALE, Target Tissue: Type of Lesion: MAMMARY GLAND: ADENOCARCINOMA, Dose [Carcinogen]: 10 MG ONCE, Promoter: NONE USED); 22/25 (88%), 10/25 (40%), 55%, p<0.05 (Carcinogen: 7,12-DIMETHYLBENZ[A]ANTHRACENE, 57-97-6, Dose [Inhibitor]: 0, 0.000025 MOL/KG DIET BEGINNING 2 WK PRIOR TO CARCINOGEN AND CONTINUED FOR STUDY DURATION (STUDY DURATION: 25 WK), Route [Inhibitor]: ORAL, Species: RAT, Strain/Sex: CD-1/FEMALE, Target Tissue: Type of Lesion: MAMMARY GLAND: ADENOCARCINOMA, Dose [Carcinogen]: 10 MG ONCE, Promoter: NONE USED).
For `COc1cc2c(c(OC)c1OC)-c1c(cc3c(c1OC)OCO3)C[C@H](C)[C@@](C)(O)C2`, where the note is “Carcinogen: 7,12-DIMETHYLBENZ[A]ANTHRACENE, 57-97-6, Dose [Inhibitor]: 0, 5 UMOL IN 100 µL ACETONE 30 MIN PRIOR EACH PROMOTER DOSE 2/WK FOR 18 WK BEGINNING 7 D POST CARCINOGEN DOSE (STUDY DUR, Route [Inhibitor]: DERMAL, Species: MOUSE, Strain/Sex: ICR/FEMALE, Target Tissue: Type of Lesion: SKIN: PAPILLOMA, Dose [Carcinogen]: 50 UG IN 100 µL ACETONE ONCE, Promoter: 12-O-TETRADECANOYLPHORBOL-13-ACETATE, 16561-29-8”, the “tumour outcome (control, treated, inhibition, significance)” value was 100%, 50%, 50%, not calculated.
Take `C/C=C/C1=CC2=CC3=C(C(=O)CCCCCCC)C(=O)O[C@@]3(C)C(=O)C2=CO1`: under “Carcinogen: 7,12-DIMETHYLBENZ[A]ANTHRACENE, 57-97-6, Dose [Inhibitor]: 0, 2 UMOL 2/WK FOR 18 WK APPLIED 30 MIN PRIOR TO EACH PROMOTER DOSE BEGINNING 1 WK POST CARCINOGEN DOSE (STUDY DURATION:, Route [Inhibitor]: DERMAL, Species: MOUSE, Strain/Sex: ICR/FEMALE, Target Tissue: Type of Lesion: SKIN: PAPILLOMA, Dose [Carcinogen]: 50 UG ONCE, Promoter: 12-O-TETRADECANOYLPHORBOL-13-ACETATE, 16561-29-8”, the “tumour outcome (control, treated, inhibition, significance)” value is 100%, 7%, 93%, not calculated.
Regarding `CC1(C)O[C@@H]2C[C@H]3[C@@H]4CCC5=CC(=O)C=C[C@]5(C)[C@@]4(F)[C@@H](O)C[C@]3(C)[C@]2(C(=O)CO)O1`, the “tumour outcome (control, treated, inhibition, significance)” value (Carcinogen: UVB IRRADIATION, Dose [Inhibitor]: 14.4 NMOL IN 0.1 ML ACETONE 5/WK FOR 4 WK IMMEDIATELY AFTER EACH UVB EXPOSURE FOLLOWED BY 48 WK OBSERVATION PERIOD (STUD, Route [Inhibitor]: DERMAL, Species: MOUSE, Strain/Sex: SKH/HRL/FEMALE, Target Tissue: Type of Lesion: SKIN: TUMOR, Dose [Carcinogen]: 0.3 KJ/SQM ON FIRST DAY, 0.6 KJ/SQM ON SECOND DAY AND ALL SUBSEQUENT DAYS 0.9 KJ/SQM ADMINISTERED 5 D/WK FOR 4 WK, Promoter: NONE USED) is reported as 8/27 (30%), 4/27 (15%), 50%, not significant.
Take `Nc1c(Br)cc(Br)cc1CNC1CCC(O)CC1` (stereo unspecified): the “tumour outcome (control, treated, inhibition, significance)” value (Carcinogen: N-METHYL-N'-NITRO-N-NITROSOGUANIDINE [70-25-7], Dose [Inhibitor]: 0, 25 MG/KG BW 1X/2 D FOR 26 WK BEGINNING 1 WK POST LAST CARCINOGEN DOSE (STUDY DURATION: 52 WK), Route [Inhibitor]: SUBCUTANEOUS, Species: RAT, Strain/Sex: WISTAR/MALE, Target Tissue: Type of Lesion: STOMACH: TUMOR, Dose [Carcinogen]: 25 UG/ML IN DRINKING WATER FOR 25 WK (STUDY DURATION: 52 WK), Promoter: AMMONIUM ACETATE [631-61-8], SODIUM HYPOCLORITE [7681-52-9]) is 17/20 (85%), 6/19 (32%), 62%, p<0.01.
On to `CC(=O)O[C@@H]1C(=O)O[C@H]2[C@@H]1OC(=O)[C@@H]2OC(C)=O`, for which the “tumour outcome (control, treated, inhibition, significance)” value is 7/45 (20%), 11/40 (28%), -40%, not calculated (Carcinogen: 2-(ACETYLAMINO)FLUORENE, 6292-55-3, Dose [Inhibitor]: 1.2% IN DIET SIMULTANEOUSLY WITH CARCINOGEN (STUDY DURATION: 30 WK), Route [Inhibitor]: ORAL, Species: RAT, Strain/Sex: WISTAR/MALE, Target Tissue: Type of Lesion: URINARY BLADDER: TUMOR, Dose [Carcinogen]: 0.04% IN DIET SUPPLEMENTED WITH 1.4% D,L-TRYPTOPHAN, Promoter: NONE USED); 6/33 (18%), 2/38 (5%), 72%, not calculated (Carcinogen: 2-(ACETYLAMINO)FLUORENE, 6292-55-3, Dose [Inhibitor]: 1.2% IN DIET SIMULTANEOUSLY WITH CARCINOGEN (STUDY DURATION: 30 WK), Route [Inhibitor]: ORAL, Species: RAT, Strain/Sex: WISTAR/MALE, Target Tissue: Type of Lesion: URINARY BLADDER: TUMOR, Dose [Carcinogen]: 0.04% IN VITAMIN B6 DEFICIENT DIET, Promoter: NONE USED); 92%, 22%, 76%, not calculated (Carcinogen: 7,12-DIMETHYLBENZ[A]ANTHRACENE, 57-97-6, Dose [Inhibitor]: 400 MG/KG, 30 MIN BEFORE DMBA TREATMENT AND 3 HR AFTER DMBA TREATMENT (STUDY DURATION: 36 WK), Route [Inhibitor]: INTRAGASTRIC, Species: RAT, Strain/Sex: SPRAGUE-DAWLEY/FEMALE, Target Tissue: Type of Lesion: MAMMARY GLAND: TUMOR, Dose [Carcinogen]: 130 MG/KG ONCE, Promoter: NONE USED).
